# Experiments:
# PC-12 cells [1] = assay: ATP assay of cell viability, PC-12 cells under hypoxia/reoxygenation; assay type: cell-based; settings: 5-100 μM carbamathione; hypoxia and reoxygenation; without treatment about 47% of control; FIG. 9
# Experimental: (§1) In another set of experiments, the effect of carbamathione on cell viability and expression of various biomarkers in PCT-12 cells exposed to hypoxia/reoxygenation was evaluated. Referring to FIG. 9, PC-12 cells were exposed to hypoxia and reoxygenation in the presence or in the absence of 5-100 μM carbamathione. […] Referring to FIGS. 13 and 14, GRP 78, CHOP, Caspase-12, and cleaved Caspase-12 expression induced by hypoxia-reoxygenation were each inhibited by carbamathione.
# PC-12 cells [2] = assay: Western blot of stress/apoptosis markers in PC-12 cells under hypoxia/reoxygenation; assay type: cell-based
# Experimental: For the Western blot assays, animals were deeply anesthetized by isoflurane (Phoenix) and decapitated, and then brains were rapidly removed. After sacrifice, the while the brain was on ice, the left hemisphere and the right hemisphere (identical parts) were quickly dissected on dry ice and homogenized in Lysis buffer consisting of 50 mM Tris-HCl, 150 mM NaCl, 2 mM EDTA, pH 8.0, 1% Triton-X-100, 1:100 dilution of mammalian protease inhibitors (Sigma-Aldrich, MO, USA) and protease inhibitor for immunoblotting. Protein concentrations of each sample solution were determined with a Bradford protein assay, and samples were stored at −80° C. until use. Protein samples were separated by 12% sodium dodecyl sulfate-polyacrylamide gel electrophoresis and transferred onto nitrocellulose membranes. Western blot was performed using the following primary antibodies overnight: abcam: GRP 78, HSP70, HSP 27, activating transcription factor 4 (ATF4), and X-box-binding protein 1 (XBP-1) (1:500); Cell Signaling: GAPDH (1:3,000), Bax, BCL2 (1:1,000), AKT, phosphorylated AKT (p-AKT); Santa Cruz: CHOP/GADD153); Imgenex: ATF6 (1:1,500). The membranes were washed three times with Tris-buffered saline containing 0.1% Tween-20 (TBS-T) and incubated with secondary antibodies for 1 hour at room temperature. Secondary antibodies used were goat IRDye 800-conjugated anti-rabbit (1:15,000) and IRDye 680 conjugated anti-mouse (1:15,000) antibodies (LI-COR Biosciences, Lincoln, Nebr., USA). Fluorescent signals were detected with a LI-COR Odyssey Fc system and the images were quantified with the provided either Image Studio 2.0 software or image J software.
# as §1
# [3] = tested on: bilateral carotid artery occlusion (BCAO) mice; assay: Brain infarct by TTC staining in BCAO stroke model; assay type: in vivo; settings: 14 mg/kg subcutaneously 30 min after occlusion
# Experimental: (§2) For the bilateral carotid artery occlusion assay (BCAO) experiments, male Swiss Webster mice (20 weeks of age) were obtained from Charles River laboratory. The mice were allowed access to water only and kept fasting overnight before surgery. Mice were anesthetized with ketamine (100 mg/kg, i.p.) plus xylazine (10 mg/kg, i.p.). For induction of anesthesia, mice were exposed to a gaseous mixture consisting of 30% oxygen, 70% N2O and 0.5% isoflurane using a vaporizer. For maintenance of anesthesia, isoflurane concentration was used to 0.5%. Mice were breathing spontaneously via breathing mask throughout the surgical procedure. A rectal temperature probe was inserted. During surgery, mice were resting on a thermostat-controlled heating pad, ensuring a constant core temperature of 37.0±0.5° C.
# (§3) While anesthesia was maintained as described above, each mouse was placed on its back, and its tail and paws were fixed to the heating pad using adhesive tape. A sagittal ventral midline incision (˜1 cm length) was performed. […] The body temperature was monitored and maintained at 37° C.±0.5° C. during the immediate postoperative period until the animals recovered fully from anesthesia. […]
# Mice were euthanized 4 days after surgery. […] To assess lesion volume, TTC-stained slices (2, 4, 6, 8, and 10 mm from the frontal pole) were scanned using a scanner and analyzed by Image-J analysis software. […]
# [4] = tested on: bilateral carotid artery occlusion (BCAO) mice; assay: Corner test in BCAO stroke model; assay type: in vivo; settings: 14 mg/kg s.c. daily; up to 4 days after BCAO; untreated BCAO ~90% to one side; FIG. 21
# Experimental: as §2, with “During surgery, mice were resting on a thermostat-controlled heating pad, ensuring a constant core temperature of 37.0±0.5° C.” left out
# While anesthesia was maintained as described above, each mouse was placed on its back, and its tail and paws were fixed to the heating pad using adhesive tape. […] The body temperature was monitored and maintained at 37° C.±0.5° C. during the immediate postoperative period until the animals recovered fully from anesthesia.
# The Corner test, which determines an animal's asymmetric direction of turning when encountering a corner, is used as an indicator of brain injury. […] Each mouse took part in ten trials, after which we calculated the percentage of turns to each side, recording only those turns involving full rearing along one of the boards. […]
# [5] = tested on: bilateral carotid artery occlusion (BCAO) mice; assay: Locomotor activity on force-plate actometer in BCAO stroke model; assay type: in vivo; settings: 14 mg/kg s.c. daily; 4 days after BCAO; FIG. 22
# Experimental: as §2
# as §3, with “performed. Both common carotid arteries (CCAs) were isolated, freed of nerve fibers, and occluded using non-traumatic aneurysm clips. Complete interruption of blood flow was confirmed under an operating microscope.” for “performed.”
# [6] = tested on: bilateral carotid artery occlusion (BCAO) mice; assay: Western blot of brain tissue in BCAO stroke model; assay type: in vivo
# Experimental: as §2
# While anesthesia was maintained as described above, each mouse was placed on its back, and its tail and paws were fixed to the heating pad using adhesive tape. A sagittal ventral midline incision (˜1 cm length) was performed. Both common carotid arteries (CCAs) were isolated, freed of nerve fibers, and occluded using non-traumatic aneurysm clips. Complete interruption of blood flow was confirmed under an operating microscope. After 30 min of ischemia, the aneurysm clips were removed from both CCAs. Restoration of blood flow (reoxygenation) was observed directly under the microscope. Sham-operated controls were subjected to the same surgical procedures except that CCAs were not occluded. The body temperature was monitored and maintained at 37° C.±0.5° C. during the immediate postoperative period until the animals recovered fully from anesthesia.
# Animals were randomly assigned for sham, control, and experimental groups. Thereafter, in experimental group (carbamathione treated group, N=9), carbamathione (14 mg/kg in 0.3 mL saline 0.9%) was injected subcutaneously 30 min after occlusion and continued daily until the animal was sacrificed. In control groups (vehicle-treated group, N=9), vehicle (0.3 ml saline 0.9%) was injected subcutaneously 30 min after occlusion. Sham-operated group (N=6) received the same surgical procedure without occlusion of common carotid artery. After surgery, animals were allowed to recover from the anesthesia, and given food and water ad libitum. The animals were daily examined for body temperature and weight, and those who had body temperature more than 39° C. after 24 hour were excluded from the experiment.
# For the Western blot assays, animals were deeply anesthetized by isoflurane (Phoenix) and decapitated, and then brains were rapidly removed. […] Protein concentrations of each sample solution were determined with a Bradford protein assay, and samples were stored at −80° C. until use. […]
# PC-12 cells [7] = settings: 10 mM glutamate for 24 hours
# Experimental: PC-12 cells (purchased from ATCC, Manassas, Va., USA) were cultured in a petri dish for one week prior to use. PC-12 cells were maintained at 37° C./5% CO2 in an incubator, and fed every other day using F12-K medium supplemented with 5% (v/v) fetal bovine serum (FBS), 10% (v/v) heat-inactivated horse serum (HS) and 1% (v/v) penicillin-streptomycin solution. Experiments were performed on undifferentiated cells plated in 96-well plates at a density of approximately 5×10^4 cells/ml for the ATP assay. On first day of use, cells were harvested by first adding 2 mL trypsin and incubated for 15 minutes. 2 mL fresh medium was then used as a wash and cells were spun, and re-suspended. Cell density was determined by cell counting using a hemocytometer and a tissue culture microscope. After cell density was determined, 96-well plates and 6-well plates were plated with 2.5×10^4 cells per well and 5×10^5 cells per well for the adenosine 5′-triphosphate (ATP) assay and Western blot analysis, respectively.
# Cell cultures were preincubated with 0.5 μM to 500 μM concentration of carbamathione for one hour. […] For the ATP assay, ATP solution was added to each well, and cells were incubated for 10 min after which time the amount of ATP was quantified through a luciferase reaction. The luminescence intensity was determined using a luminometer with lysates in a standard opaque-walled multi-well plate. […]
# [8] = after 4 days, compared to vehicle treated group, FIG. 23
# [9] = day 4 post BCAO, compared with vehicle treated group, FIG. 24
smiles,measurement,setting,value
"CCN(CC)C(=O)SC[C@H](NC(=O)CC[C@H](N)C(=O)O)C(=O)NCC(=O)O [carbamathione, S—(N,N-diethylcarbamoyl)glutathione]",cell viability (ATP levels),PC-12 cells [1],dramatically increased the cell viability
same,CHOP expression induced by hypoxia-reoxygenation,PC-12 cells [2]; FIG. 13,inhibited
same,GRP 78 expression induced by hypoxia-reoxygenation,PC-12 cells [2]; FIG. 13,inhibited
same,Caspase-12 expression induced by hypoxia-reoxygenation,PC-12 cells [2]; FIG. 14,inhibited
same,cleaved Caspase-12 expression induced by hypoxia-reoxygenation,PC-12 cells [2]; FIG. 14,inhibited
same,ATF4 expression induced by hypoxia-reoxygenation,PC-12 cells [2]; FIG. 15,inhibited
same,ATF6 expression induced by hypoxia-reoxygenation,PC-12 cells [2]; FIG. 16,inhibited
same,XBP1 expression induced by hypoxia-reoxygenation,PC-12 cells [2]; FIG. 17,inhibited
same,Bax expression (upregulation induced by hypoxia/reoxygenation),PC-12 cells [2]; FIG. 18,decreased the upregulation
same,Bcl2 expression (downregulation induced by hypoxia/reoxygenation),PC-12 cells [2]; FIG. 18,increased the downregulation
same,decrease in the Bcl2:Bax ratio induced by hypoxia/reoxygenation,PC-12 cells [2]; FIG. 18,inhibited
same,cleaved Caspase-3 expression (upregulation induced by hypoxia/reoxygenation),PC-12 cells [2]; FIG. 19,decreased the upregulation
same,AKT expression,"PC-12 cells [2]; hypoxia-reoxygenation, FIG. 12",no changes
same,Hsp 27 expression,"PC-12 cells [2]; hypoxia-reoxygenation, compared to hypoxia-reoxygenation alone, FIG. 10",greater over-expression
same,Hsp 70 expression,"PC-12 cells [2]; hypoxia-reoxygenation, compared to hypoxia-reoxygenation alone, FIG. 11",greater over-expression
same,P-AKT expression,"PC-12 cells [2]; hypoxia-reoxygenation, compared to hypoxia-reoxygenation alone, FIG. 12",up-regulated
same,infarct size (TTC staining),"[3]; daily, 4 days after surgery, 2, 4, 6, 8, 10 mm from frontal pole, FIG. 20",noticeably reduced
same,volume of the lesion,"[3]; sections 2, 4, 6, 8 and 10 mm, 30 min transient BCAO, FIG. 20c",markedly reduced
same,asymmetric turning in Corner test,[4],not significant differently from that seen in the sham-operated mice
same,locomotor activity,[5],statistically significantly different than BCAO with vehicle group
same,CHOP expression in the brains,[6]; [8],decreased dramatically
same,GRP 78 expression in the brains,[6]; [8],decreased dramatically
same,Bax expression in the brains,[6]; [9],decreased expression
same,Bcl2 expression in the brains,[6]; [9],significantly increased expression
N[C@@H](CCC(=O)O)C(=O)O [glutamate],survival of PC-12 cells (ATP assay),PC-12 cells [7],about 45%

# From patent publication US11576945B2, “Treatment for ischemic stroke” (CHS Pharma Inc., priority 2018, dated 2023)
